Measured values reported in the supplement of paper PMC10307832.

Experiments:
Assay in all cases: relative viability (nuclei count vs DMSO), 5 days (fraction); higher = more cells survive
[1] = compound: C(C(=O)C(=O)O)Br [Bromopyruvate] + CC1(C)CCC(c2ccc(Cl)cc2)=C(CN2CCN(c3ccc(C(=O)NS(=O)(=O)c4ccc(N[C@H](CCN5CCOCC5)CSc5ccccc5)c(S(=O)(=O)C(F)(F)F)c4)cc3)CC2)C1 [Navitoclax] (partner 0.5 µM)
Summary of the method: (§1)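 For relative viability, nuclei counts in treated wells were divided by those in vehicle wells. Lung cancer cell lines had been pin-tool dosed in 1536-well plates the day after seeding and cultured for 5 days, then fixed and stained in one step (final 0.05% Triton X-100, 1% formaldehyde, 1 ug/ml Hoechst) and imaged at 4×. Doses were one drug alone or a fixed anchor-drug dose plus five library-drug doses (not always all listed) in √10 steps, and values are duplicate-plate medians.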

Bicalutamide = compound: CC(O)(CS(=O)(=O)c1ccc(F)cc1)C(=O)Nc1ccc(C#N)c(C(F)(F)F)c1 [Bicalutamide]
Summary of the method: (§2)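 Lung cancer cell lines in 1536-well plates were kept overnight at 37 °C, then pinned with five library-drug doses (not always all listed) spaced by √10 on vehicle-anchored plates. After 5 days without medium change, cells were fixed, permeabilised and Hoechst-stained in one step, imaged at 4×, and nuclei were counted with MetaXpress. Viability is treated-well nuclei divided by vehicle-well nuclei, taken as the median over plates. Plates passed only with control CV below 25% and at least one doubling.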

Bromopyruvate = compound: C(C(=O)C(=O)O)Br [Bromopyruvate]
Summary of the method: as §2

[2] = compound: C(C(=O)C(=O)O)Br [Bromopyruvate] + COc1cc2c(Oc3ccc(NC(=O)C4(C(=O)Nc5ccc(F)cc5)CC4)cc3F)ccnc2cc1OCCCN1CCOCC1 [Foretinib] (partner 0.25 µM)
Summary of the method: as §1

Cell Line | relative viability ([1]; first compound 1 µM) | relative viability ([1]; first compound 3.162 µM) | relative viability ([1]; first compound 10 µM) | relative viability ([1]; first compound 31.62 µM) | relative viability ([1]; first compound 100 µM) | relative viability (Bicalutamide; 0.08 µM) | relative viability (Bicalutamide; 0.253 µM) | relative viability (Bicalutamide; 0.8 µM) | relative viability (Bicalutamide; 2.53 µM) | relative viability (Bromopyruvate; 1 µM) | relative viability (Bromopyruvate; 3.162 µM) | relative viability (Bromopyruvate; 10 µM) | relative viability (Bromopyruvate; 31.62 µM) | relative viability (Bromopyruvate; 100 µM) | relative viability ([2]; first compound 1 µM) | relative viability ([2]; first compound 3.162 µM) | relative viability ([2]; first compound 10 µM) | relative viability ([2]; first compound 31.62 µM) | relative viability ([2]; first compound 100 µM)
HCC-44 | 0.907 | 0.967 | 1.08 | 0.96 | 1.04 | 1.03 | 0.998 | 0.981 | 1.01 | 1.02 | 0.986 | 0.992 | 1.01 | 0.985 |  |  |  |  | 
HCC-827 | 1.02 | 1 | 0.99 | 1.12 | 0.996 | 1.08 | 0.842 | 1.07 | 1.03 | 1.04 | 1.02 | 0.988 | 1.06 | 1.07 | 1.05 | 1.02 | 1.02 | 1.08 | 1.08
NCI-H1623 |  |  |  |  |  | 0.628 | 0.89 | 0.969 | 0.904 | 1.07 | 0.944 | 1.25 | 0.973 | 0.948 | 0.897 | 0.879 | 0.99 | 0.927 | 0.987
NCI-H2405 | 0.903 | 0.94 | 0.971 | 0.774 | 1.15 | 1.07 | 0.968 | 1.18 | 0.926 | 1.06 | 0.968 | 0.984 | 0.873 | 1.05 | 1.08 | 1.07 | 1.08 | 1.04 | 1.04
PC-3 [JPC-3] | 0.751 | 0.811 | 0.838 | 0.727 | 0.828 | 1.07 | 1.03 | 1.16 | 1.03 | 1.08 | 1.04 | 0.986 | 1.01 | 1.04 | 1.16 | 1.03 | 1.12 | 0.976 | 1.03
NCI-H1651 | 1.04 | 0.97 | 1.07 | 0.96 | 1.2 | 0.995 | 0.93 | 1.16 | 0.972 | 1.01 | 0.991 | 1.07 | 0.958 | 0.924 | 0.728 | 0.902 | 0.904 | 0.849 | 0.91
HARA | 1.12 | 1.16 | 1.13 | 1.17 | 1.14 | 1.02 | 0.802 | 1.01 | 0.953 | 1.01 | 1.1 | 0.997 | 0.983 | 1.05 | 0.91 | 0.868 | 0.984 | 0.824 | 0.93
NCI-H1650 | 1.09 | 1.31 | 1.42 | 1.47 | 1.19 | 0.967 | 0.935 | 1.1 | 0.842 | 0.998 | 0.835 | 0.959 | 0.938 | 0.865 | 1.16 | 1.25 | 1.12 | 1.42 | 0.747
NCI-H1563 |  |  |  |  |  | 0.965 | 0.978 | 1.01 | 0.852 | 0.952 | 0.97 | 0.973 | 0.926 | 0.987 | 0.869 | 1.11 | 0.946 | 0.879 | 0.901
ABC-1 |  |  |  |  |  | 0.998 | 0.857 | 0.951 | 0.943 | 1.14 | 0.935 | 0.807 | 0.995 | 0.945 | 1.09 | 0.941 | 1.14 | 0.833 | 0.95
SW 900 |  |  |  |  |  | 0.847 | 0.858 | 0.9 | 0.742 | 0.923 | 0.774 | 0.754 | 0.881 | 0.883 | 0.902 | 0.955 | 0.665 | 0.84 | 0.898
NCI-H1648 |  |  |  |  |  |  | 0.662 | 0.93 | 1.2 | 0.878 | 0.916 | 0.991 | 0.769 | 0.773 |  |  |  |  | 
NCI-H1792 | 0.716 | 0.719 | 0.787 | 0.486 | 0.542 | 0.987 | 0.779 | 1.19 | 0.962 | 1.14 | 1.21 | 0.805 | 0.811 | 0.928 |  |  |  |  | 
LCLC-103H |  |  |  |  |  | 0.986 | 0.971 | 1.08 | 0.918 | 0.953 | 0.992 | 1.11 | 0.994 | 0.976 | 0.568 | 0.748 | 0.97 | 0.797 | 1.02
NCI-H358 |  |  |  |  |  | 0.988 | 0.865 | 1.13 | 1.06 | 1.03 | 1.02 | 0.939 | 0.909 | 0.929 | 0.764 | 0.71 | 0.761 | 0.598 | 0.653
NCI-H2342 |  |  |  |  |  | 1.06 | 0.978 | 1.07 | 1.03 | 0.975 | 0.912 | 1.02 | 0.949 | 0.903 | 1.09 | 1.18 | 1.01 | 0.853 | 1.04
NCI-H522 |  |  |  |  |  | 1.07 | 0.828 | 0.999 | 0.991 | 1.06 | 0.975 | 0.941 | 0.939 | 0.785 |  |  |  |  | 
NCI-H650 |  |  |  |  |  | 1.08 | 1.03 | 1.11 | 0.837 | 0.944 | 1 | 0.98 | 0.887 | 0.895 | 1.04 | 1.03 | 1.16 | 1.01 | 0.948
NCI-H661 |  |  |  |  |  | 0.987 | 0.998 | 1.04 | 1.01 | 1.02 | 0.992 | 1.02 | 1.01 | 0.972 | 1.02 | 1.02 | 1.05 | 1.02 | 0.994
